Assay results taken from patent publication US7501430B2 (ArQule, Inc., priority 2006, dated 2009).

Target: T1, mutant B-RAF (Homo sapiens, UniProt P15056, V600E)
T1 construct: purchased Upstate (Charlottesville, Va.)
Assay: RAF biochemical assay (MEK-1 phosphorylation, anti-phospho MEK1/2 detection)
Conditions: for IC50: read-out: Mutant B-RAF IC50
Summary of the method: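 Detection is by ELISA: after a 30 min room-temperature reaction, plate-captured GST-MEK-1 is probed with anti-phospho MEK1/2, then an AP-tagged secondary antibody with fluorescent Attophos read-out.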

T1 sequence (P15056 whole entry V600E): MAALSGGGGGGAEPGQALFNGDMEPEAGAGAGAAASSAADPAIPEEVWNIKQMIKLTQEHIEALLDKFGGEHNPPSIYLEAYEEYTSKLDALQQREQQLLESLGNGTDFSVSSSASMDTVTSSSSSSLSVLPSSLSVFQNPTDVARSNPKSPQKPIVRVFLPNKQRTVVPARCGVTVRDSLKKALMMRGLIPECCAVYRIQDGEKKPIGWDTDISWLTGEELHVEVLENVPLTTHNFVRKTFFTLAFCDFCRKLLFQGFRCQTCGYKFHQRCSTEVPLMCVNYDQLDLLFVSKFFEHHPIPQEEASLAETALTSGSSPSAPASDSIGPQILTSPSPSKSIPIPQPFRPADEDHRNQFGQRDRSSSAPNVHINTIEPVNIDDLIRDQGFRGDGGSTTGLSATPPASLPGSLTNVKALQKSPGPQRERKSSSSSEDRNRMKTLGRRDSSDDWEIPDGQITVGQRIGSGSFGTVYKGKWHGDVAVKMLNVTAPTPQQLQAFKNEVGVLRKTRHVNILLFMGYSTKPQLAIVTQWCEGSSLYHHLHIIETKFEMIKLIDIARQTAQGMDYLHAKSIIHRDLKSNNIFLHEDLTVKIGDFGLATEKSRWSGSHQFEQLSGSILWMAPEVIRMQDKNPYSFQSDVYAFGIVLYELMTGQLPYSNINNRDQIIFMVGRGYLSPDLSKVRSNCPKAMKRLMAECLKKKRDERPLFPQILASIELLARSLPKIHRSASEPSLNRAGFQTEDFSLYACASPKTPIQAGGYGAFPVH

SMILES | IC50 [nM] | inhibition at 10 µM (@ 10 uM, read-out: Mutant B-RAF % inhibition) [%]
Cc1ccc(S(=O)(=O)N2CCC(Nc3nccc(-c4c(-c5ccc(F)cc5)nc5occn45)n3)CC2)cc1 [Example 198, 4-[6-(4-fluorophenyl)imidazo[2,1-b][1,3]oxazol-5-yl]-N-{1-[(4-methylphenyl)sulfonyl]piperidin-4-yl}pyrimidin-2-amine] | 218 | –
O=S(=O)(c1ccc(Cl)cc1)N1CCC(Nc2nccc(-c3c(-c4ccc(F)cc4)nc4occn34)n2)CC1 [Example 199, N-{1-[(4-chlorophenyl)sulfonyl]piperidin-4-yl}-4-[6-(4-fluorophenyl)imidazo[2,1-b][1,3]oxazol-5-yl]pyrimidin-2-amine] | 92 | –
COc1ccc(S(=O)(=O)N2CCC(Nc3nccc(-c4c(-c5ccc(F)cc5)nc5occn45)n3)CC2)cc1 [Example 200, 4-[6-(4-fluorophenyl)imidazo[2,1-b][1,3]oxazol-5-yl]-N-{1-[(4-methoxyphenyl)sulfonyl]piperidin-4-yl}pyrimidin-2-amine] | 115 | –
CC(C)c1ccc(S(=O)(=O)N2CCC(Nc3nccc(-c4c(-c5ccc(F)cc5)nc5occn45)n3)CC2)cc1 [Example 201, 4-[6-(4-fluorophenyl)imidazo[2,1-b][1,3]oxazol-5-yl]-N-{1-[(4-isopropylphenyl)sulfonyl]piperidin-4-yl}pyrimidin-2-amine] | 420 | –
O=S(=O)(c1cccc(C(F)(F)F)c1)N1CCC(Nc2nccc(-c3c(-c4ccc(F)cc4)nc4occn34)n2)CC1 [Example 202, 4-[6-(4-fluorophenyl)imidazo[2,1-b][1,3]oxazol-5-yl]-N-(1-{[3-(trifluoromethyl)phenyl]sulfonyl}piperidin-4-yl)pyrimidin-2-amine] | 840 | –
O=S(=O)(c1ccc(OC(F)(F)F)cc1)N1CCC(Nc2nccc(-c3c(-c4ccc(F)cc4)nc4occn34)n2)CC1 [Example 203, 4-[6-(4-fluorophenyl)imidazo[2,1-b][1,3]oxazol-5-yl]-N-(1-{[4-(trifluoromethoxy)phenyl]sulfonyl}piperidin-4-yl)pyrimidin-2-amine] | 521 | –
O=S(=O)(c1ccc(F)c(Cl)c1)N1CCC(Nc2nccc(-c3c(-c4ccc(F)cc4)nc4occn34)n2)CC1 [Example 204, N-{1-[(3-chloro-4-fluorophenyl)sulfonyl]piperidin-4-yl}-4-[-6-(4-fluorophenyl)imidazo[2,1-b][1,3]oxazol-5-yl]pyrimidin-2-amine] | 541 | –
O=S(=O)(c1cc(Cl)cc(Cl)c1)N1CCC(Nc2nccc(-c3c(-c4ccc(F)cc4)nc4occn34)n2)CC1 [Example 205, N-{1-[(3,5-dichlorophenyl)sulfonyl]piperidin-4-yl}-4-[6-(4-fluorophenyl)imidazo[2,1-b][1,3]oxazol-5-yl]pyrimidin-2-amine] | 981 | –
O=S(=O)(c1cccc(Cl)c1)N1CCC(Nc2nccc(-c3c(-c4ccc(F)cc4)nc4occn34)n2)CC1 [Example 206, N-{1-[(3-chlorophenyl)sulfonyl]piperidin-4-yl}-4-[6-(4-fluorophenyl)imidazo[2,1-b][1,3]oxazol-5-yl]pyrimidin-2-amine] | 329 | –
O=S(=O)(c1cc(C(F)(F)F)cc(C(F)(F)F)c1)N1CCC(Nc2nccc(-c3c(-c4ccc(F)cc4)nc4occn34)n2)CC1 [Example 207, N-(1-{[3,5-bis(trifluoro-methyl)phenyl]sulfonyl}piperidin-4-yl)-4-[6-(4-fluorophenyl)imidazo[2,1-b][1,3]oxazol-5-yl]pyrimidin-2-amine] | 27 | –
COc1cccc(-c2nc3sccn3c2-c2ccnc(NC3CCNCC3)n2)c1 [Example 208, 4-[6-(3-methoxyphenyl)imidazo[2,1-b][1,3]thiazol-5-yl]-N-piperidin-4-ylpyrimidin-2-amine] | 2930 | –
Nc1c(Cl)c(Cl)nc(C(=O)N2CCC(Nc3nccc(-c4c(-c5ccc(F)cc5)nc5occn45)n3)CC2)c1Cl [Example 209, N-{1-[(4-amino-3,5,6-trichloropyridin-2-yl)carbonyl]piperidin-4-yl}-4-[6-(4-fluorophenyl)imidazo[2,1-b][1,3]oxazol-5-yl]pyrimidin-2-amine] | – | 49
